# Laboratory results published in PubChem BioAssay AID1963981 (Molecular Pharmacology Branch, DTP, NCI, 2024).
# pIC50: −log10 of the molar value.
# Tested on: 354836-022-R-J1-PDC multicell spheroid viability
# Assay: Anticancer human tumor 354836-022-R-J1-PDC patient-derived head and neck squamous cell carcinoma cell line growth inhibition [PI3K]
# Conditions: for pIC50: curve of first compound; for viability, T/C: stronger effect = lower value
# Excerpt: Combinatorial screen of targeted agents with the PI3K inhibitors inavolisib, alpelisib, duvelisib, and copanlisib in multi-cell type tumor spheroids
# A high-throughput screen of multi-cell type tumor spheroids was designed to identify active combinations of targeted small molecules and PI3K pathway inhibitors. Complex spheroids include a stromal component modeled by human endothelial cells (HUVEC) and fibroblasts modeled by human mesenchymal stem cells (MSCs). The concentration ranges selected for each drug and investigational agent were based upon clinically achievable concentrations if the clinical Cmax of the agent was known.
# Compounds. The drugs and investigational agents: inavolisib (NSC800729), alpelisib (NSC765974), duvelisib (NSC772469), copanlisib (NSC816437), ipatasertib (NSC767898), afuresertib (NSC778305), talazoparib (NSC767125), sapanisertib (NSC764658), selumetinib (NSC741078), tovorafenib (DAY101, NSC766906), vemurafenib (NSC761431), ravoxertinib (NSC781343), sotorasib (NSC818433), MRTX1133 (NSC 836407), abemaciclib (NSC 768073), palbociclib (NSC758247), venetoclax (NSC 766270), SY5609 (NSC837396), enzalutamide (NSC755605), and darolutamide (NSC825331), were obtained from the National Cancer Institute (NCI) Developmental Therapeutics Program Chemical Repository. The FDA-approved anticancer drug set is available from the NCI Developmental Therapeutics Program. […] The stock solutions were prepared in dimethyl sulfoxide (DMSO, Sigma-Aldrich, St. Louis, MO, cat. D2650) at 800-fold the tested concentration and stored at -70 degrees C prior to their use. All drugs and investigational agents were tested over a range starting from a high concentration at or near the clinical Cmax and decreasing in half-log increments. If the clinical Cmax for an agent had not been determined, the highest concentration tested was 10 microM.
# Cell Culture. All cells were maintained in an incubator at 37 degrees C and 5% CO2 with 95% humidity. The PDC lines were cultured according to standard operating procedures established by the NCI PDMR (https://pdmr.cancer.gov/sops/default.htm). All PDCs were thawed and cultured in Matrigel-coated flasks prepared with a working solution of 1X Ham's F-12 nutrient mix, without supplementation (Invitrogen, Waltham, MA, cat. 11765054), 100 U/mL penicillin-streptomycin (Invitrogen, cat. 15140122), and 2.5% Matrigel (Corning Inc., Corning, NY, cat. 354248) for the first three passages. The 354836-022-R-J1-PDC, 475296-252-R-J1-PDC, and 997726-040-R-J2-PDC lines were cultured in 6A media, which includes advanced DMEM/F-12 (Thermo Fisher Scientific, cat. 12634028), 10 mM HEPES (Thermo Fisher Scientific, cat. 15630080), 1X GlutaMAX supplement (Thermo Fisher Scientific, cat. 35050061), 0.1 mg/mL primocin (InvivoGen, San Diego, CA, cat. ant-pm-2), 10% defined fetal bovine serum, heat inactivated (HyClone Laboratories Inc., Logan, UT, cat. SH30070.03HI), 50% L-WRN conditioned media (ATCC, cat. CRL-3276), 1.25 mM N-Acetyl-L-cysteine (Sigma-Aldrich, cat. A9165), 10 mM nicotinamide (Sigma-Aldrich, cat. N0636), 1X B-27 supplement (Thermo Fisher Scientific, cat. 17504044), 1X N-2 supplement (Thermo Fisher Scientific, cat. 17502048), and 10 microM Y-27632 dihydrochloride (Tocris Bioscience, Bristol, United Kingdom, cat. 1254). The 624824-186-R-J2-PDC line was cultured in 6C/Colon 1B media, which includes all 6A media components plus 50 ng/mL human EGF recombinant protein (Thermo Fisher Scientific, cat. PHG0311). […]
# [1] = second compound 0.0316 µM, first compound 0.00316 µM
# [2] = second compound 0.0316 µM, first compound 0.01 µM
# [3] = second compound 0.0316 µM, first compound 0.0316 µM
# [4] = second compound 0.0316 µM, first compound 0.1 µM
# [5] = second compound 0.1 µM, first compound 0.00316 µM
# [6] = second compound 0.1 µM, first compound 0.01 µM
# [7] = second compound 0.1 µM, first compound 0.0316 µM
# [8] = second compound 0.1 µM, first compound 0.1 µM
# [9] = second compound 0.316 µM, first compound 0.00316 µM
# [10] = second compound 0.316 µM, first compound 0.01 µM
# [11] = second compound 0.316 µM, first compound 0.0316 µM
# [12] = second compound 0.316 µM, first compound 0.1 µM
# [13] = second compound 1 µM, first compound 0.00316 µM
# [14] = second compound 1 µM, first compound 0.01 µM
# [15] = second compound 1 µM, first compound 0.0316 µM
# [16] = second compound 1 µM, first compound 0.1 µM
# [17] = second compound 3.16 µM, first compound 0.00316 µM
# [18] = second compound 3.16 µM, first compound 0.01 µM
# [19] = second compound 3.16 µM, first compound 0.0316 µM
# [20] = second compound 3.16 µM, first compound 0.1 µM
# [21] = second compound 10 µM, first compound 0.00316 µM
# [22] = second compound 10 µM, first compound 0.01 µM
# [23] = second compound 10 µM, first compound 0.0316 µM
# [24] = second compound 10 µM, first compound 0.1 µM
# 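Also: spheroids exposed to agents for seven days before the viability read.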
compound,measurement,setting,value
CCN1CCN(Cc2ccc(Nc3ncc(F)c(-c4cc(F)c5nc(C)n(C(C)C)c5c4)n3)nc2)CC1 + CC(Nc1ncnc2nc[nH]c12)c1cc2cccc(Cl)c2c(=O)n1-c1ccccc1,pIC50,second compound 0.0316 µM,6.04
same,pIC50,second compound 0.1 µM,< 6.00
same,pIC50,second compound 0.316 µM,< 6.00
same,pIC50,second compound 1 µM,6.02
same,pIC50,second compound 3.16 µM,6.10
same,pIC50,second compound 10 µM,6.19
same,"viability, T/C",[1],109%
same,"viability, T/C",[2],103%
same,"viability, T/C",[3],97.6%
same,"viability, T/C",[4],96.7%
same,"viability, T/C","second compound 0.0316 µM, first compound 0.316 µM",81.7%
same,"viability, T/C","second compound 0.0316 µM, first compound 1 µM",47.3%
same,"viability, T/C",[5],106%
same,"viability, T/C",[6],109%
same,"viability, T/C",[7],91.7%
same,"viability, T/C",[8],103%
same,"viability, T/C","second compound 0.1 µM, first compound 0.316 µM",99.5%
same,"viability, T/C","second compound 0.1 µM, first compound 1 µM",61.2%
same,"viability, T/C",[9],103%
same,"viability, T/C",[10],102%
same,"viability, T/C",[11],102%
same,"viability, T/C",[12],104%
same,"viability, T/C","second compound 0.316 µM, first compound 0.316 µM",89.4%
same,"viability, T/C","second compound 0.316 µM, first compound 1 µM",58.1%
same,"viability, T/C",[13],119%
same,"viability, T/C",[14],104%
same,"viability, T/C",[15],94.9%
same,"viability, T/C",[16],109%
same,"viability, T/C","second compound 1 µM, first compound 0.316 µM",91.6%
same,"viability, T/C","second compound 1 µM, first compound 1 µM",47.8%
same,"viability, T/C",[17],97.9%
same,"viability, T/C",[18],110%
same,"viability, T/C",[19],94.2%
same,"viability, T/C",[20],100%
same,"viability, T/C","second compound 3.16 µM, first compound 0.316 µM",93.7%
same,"viability, T/C","second compound 3.16 µM, first compound 1 µM",38.5%
same,"viability, T/C",[21],92.5%
same,"viability, T/C",[22],92.8%
same,"viability, T/C",[23],90.1%
same,"viability, T/C",[24],86.4%
same,"viability, T/C","second compound 10 µM, first compound 0.316 µM",83.8%
same,"viability, T/C","second compound 10 µM, first compound 1 µM",29.6%
CC(=O)c1c(C)c2cnc(Nc3ccc(N4CCNCC4)cn3)nc2n(C2CCCC2)c1=O + Cc1nc(NC(=O)N2CCCC2C(N)=O)sc1-c1ccnc(C(C)(C)C(F)(F)F)c1,pIC50,second compound 0.0316 µM,< 7.00
same,pIC50,second compound 0.1 µM,< 7.00
same,pIC50,second compound 0.316 µM,< 7.00
same,pIC50,second compound 1 µM,< 7.00
same,pIC50,second compound 3.16 µM,< 7.00
same,pIC50,second compound 10 µM,> 9.50
same,"viability, T/C","second compound 0.0316 µM, first compound 0.000316 µM",105%
same,"viability, T/C","second compound 0.0316 µM, first compound 0.001 µM",96.8%
same,"viability, T/C",[1],105%
same,"viability, T/C",[2],83.7%
same,"viability, T/C",[3],117%
same,"viability, T/C",[4],101%
same,"viability, T/C","second compound 0.1 µM, first compound 0.000316 µM",103%
same,"viability, T/C","second compound 0.1 µM, first compound 0.001 µM",91.8%
same,"viability, T/C",[5],92.9%
same,"viability, T/C",[6],92.8%
same,"viability, T/C",[7],89.4%
same,"viability, T/C",[8],111%
same,"viability, T/C","second compound 0.316 µM, first compound 0.000316 µM",84.1%
same,"viability, T/C","second compound 0.316 µM, first compound 0.001 µM",83.5%
same,"viability, T/C",[9],85.8%
same,"viability, T/C",[10],96.6%
same,"viability, T/C",[11],86.4%
same,"viability, T/C",[12],88.9%
same,"viability, T/C","second compound 1 µM, first compound 0.000316 µM",71%
same,"viability, T/C","second compound 1 µM, first compound 0.001 µM",89.5%
same,"viability, T/C",[13],74.6%
same,"viability, T/C",[14],73.3%
same,"viability, T/C",[15],73.5%
same,"viability, T/C",[16],85.2%
same,"viability, T/C","second compound 3.16 µM, first compound 0.000316 µM",63%
same,"viability, T/C","second compound 3.16 µM, first compound 0.001 µM",72.1%
same,"viability, T/C",[17],67.8%
same,"viability, T/C",[18],60%
same,"viability, T/C",[19],59.4%
same,"viability, T/C",[20],67.5%
same,"viability, T/C","second compound 10 µM, first compound 0.000316 µM",41%
same,"viability, T/C","second compound 10 µM, first compound 0.001 µM",37.3%
same,"viability, T/C",[21],35.7%
same,"viability, T/C",[22],35.4%
same,"viability, T/C",[23],34.9%
same,"viability, T/C",[24],39.7%
